Target: PI3K delta (Homo sapiens, UniProt O00329)
Experiment: Luciferase-coupled chemiluminescence kinase assay (ATP consumption, KinaseGlo)
Assay type: biochemical
Procedure: Kinase activity and compound inhibition were investigated using one or more of the assay formats described below. The ATP concentrations used in the various assays were approximately equal to or less than the KM for each of the respective kinases. Dose-response experiments were performed using an intra-plate dilution scheme with 10 different inhibitor concentrations in a 384-well microtiter plate. IC50 values were calculated by nonlinear regression analysis using the four-parameter equation listed below:
Y=min+(max−min)/(1+(X/IC50)^N) Equation 1
Typically N should approximate unity. Curve fitting was performed using XLFit or ActivityBase.
Kinase activity is measured as the percent of ATP consumed following the kinase reaction using luciferase-luciferin-coupled chemiluminescence. […] Kinase reactions were initiated by combining test compounds, kinase, and ATP in a 20 μL volume (6 μL volume for 1536-well plate). The reaction mixture was incubated at ambient temperature for 2 h. Following the kinase reaction, a 20 μL (or […] for 1536-well plate) aliquot of KinaseGlo (Promega) was added and the chemiluminescence signal measured using an EnVision plate reader (Perkin Elmer).

Chain of PI3K delta (O00329 whole entry): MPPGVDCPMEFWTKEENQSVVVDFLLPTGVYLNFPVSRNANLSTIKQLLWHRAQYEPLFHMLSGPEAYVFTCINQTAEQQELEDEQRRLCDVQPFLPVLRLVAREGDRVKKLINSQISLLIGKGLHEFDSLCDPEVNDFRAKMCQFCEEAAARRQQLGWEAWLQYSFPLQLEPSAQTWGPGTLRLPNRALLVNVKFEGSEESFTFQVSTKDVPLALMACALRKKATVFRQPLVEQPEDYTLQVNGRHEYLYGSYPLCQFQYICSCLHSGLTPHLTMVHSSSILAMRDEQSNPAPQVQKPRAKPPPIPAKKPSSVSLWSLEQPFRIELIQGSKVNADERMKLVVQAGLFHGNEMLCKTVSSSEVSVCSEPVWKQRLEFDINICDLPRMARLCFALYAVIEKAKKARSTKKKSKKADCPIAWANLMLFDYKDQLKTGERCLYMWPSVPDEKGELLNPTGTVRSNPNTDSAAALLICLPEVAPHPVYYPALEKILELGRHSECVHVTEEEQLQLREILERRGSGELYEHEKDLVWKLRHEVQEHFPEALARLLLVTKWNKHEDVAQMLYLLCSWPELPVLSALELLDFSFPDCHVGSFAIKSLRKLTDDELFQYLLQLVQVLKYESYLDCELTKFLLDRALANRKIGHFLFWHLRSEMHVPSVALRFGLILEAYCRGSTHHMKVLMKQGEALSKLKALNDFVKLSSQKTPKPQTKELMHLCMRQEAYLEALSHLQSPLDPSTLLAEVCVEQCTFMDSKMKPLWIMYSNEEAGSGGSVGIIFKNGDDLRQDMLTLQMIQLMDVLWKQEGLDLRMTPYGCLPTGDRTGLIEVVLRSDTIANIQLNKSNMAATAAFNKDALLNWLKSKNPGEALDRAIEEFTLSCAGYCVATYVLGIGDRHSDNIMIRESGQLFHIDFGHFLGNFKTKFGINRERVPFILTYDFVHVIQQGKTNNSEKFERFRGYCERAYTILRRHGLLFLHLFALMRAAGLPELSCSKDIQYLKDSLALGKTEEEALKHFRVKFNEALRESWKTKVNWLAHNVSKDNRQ
Chain of PI3K delta (P27986 whole entry partner): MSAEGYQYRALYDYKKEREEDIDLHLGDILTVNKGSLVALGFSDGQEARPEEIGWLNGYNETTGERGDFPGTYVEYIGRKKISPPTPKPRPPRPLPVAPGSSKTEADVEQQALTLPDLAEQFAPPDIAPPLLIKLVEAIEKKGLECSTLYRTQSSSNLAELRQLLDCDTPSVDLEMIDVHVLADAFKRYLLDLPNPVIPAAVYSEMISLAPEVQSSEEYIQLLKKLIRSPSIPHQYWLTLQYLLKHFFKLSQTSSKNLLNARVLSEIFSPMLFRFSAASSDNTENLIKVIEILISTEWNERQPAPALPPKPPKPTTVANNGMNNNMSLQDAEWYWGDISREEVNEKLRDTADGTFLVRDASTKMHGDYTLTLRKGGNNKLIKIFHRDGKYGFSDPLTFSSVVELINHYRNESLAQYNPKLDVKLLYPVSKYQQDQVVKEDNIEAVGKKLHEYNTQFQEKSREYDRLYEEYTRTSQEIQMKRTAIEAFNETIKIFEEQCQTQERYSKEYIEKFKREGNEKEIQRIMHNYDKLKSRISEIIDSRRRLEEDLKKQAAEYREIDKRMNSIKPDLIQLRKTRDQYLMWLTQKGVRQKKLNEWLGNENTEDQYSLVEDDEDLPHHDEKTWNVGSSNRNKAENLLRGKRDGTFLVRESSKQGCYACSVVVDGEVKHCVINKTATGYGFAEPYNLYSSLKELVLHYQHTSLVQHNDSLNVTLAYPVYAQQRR

| Compound | IC50 [nM] |
| --- | --- |
| Cn1c(-c2ccccc2)nc2c(N3CCC(n4c(=O)[nH]c5ccccc54)CC3)ncnc21 [Compound 267, 1-[1-(9-methyl-8-phenyl-9H-purin-6-yl)piperidin-4-yl]-1,3-dihydro-2H-benzimidazol-2-one] | 500 to 1500 |
| Cn1cc(-c2nc3c(N4CCN(S(=O)(=O)c5ccc(Cl)cc5Cl)CC4)ncnc3n2C)cn1 [Compound 392, 6-{4-[(2,4-dichlorophenyl)sulfonyl]piperazin-1-yl}-9-methyl-8-(1-methyl-1H-pyrazol-4-yl)-9H-purine] | 500 to 1500 |
| CC(C)Cn1cc(-c2nc3c(N4CCC(n5c(=O)[nH]c6ccccc65)CC4)ncnc3n2C)cn1 [Compound 148, 1-(1-{9-methyl-8-[1-(2-methylpropyl)-1H-pyrazol-4-yl]-9H-purin-6-yl}piperidin-4-yl)-1,3-dihydro-2H-benzimidazol-2-one] | < 50 |
| CCCCNC(=O)c1nc2c(N3CCC4(CC3)C(=O)Nc3ccccc34)ncnc2n1CC [Compound 162, N-butyl-9-ethyl-6-(2-oxo-1,2-dihydro-1′H-spiro[indole-3,4′-piperidin]-1′-yl)-9H-purine-8-carboxamide] | < 50 |
| CCCn1cc(-c2nc3c(N4CCC5(CC4)C(=O)Nc4ccccc45)ncnc3n2C)cn1 [Compound 234, 1′-[9-methyl-8-(1-propyl-1H-pyrazol-4-yl)-9H-purin-6-yl]spiro[indole-3,4′-piperidin]-2(1H)-one] | < 50 |
| CCn1c(-c2ccnnc2)nc2c(N3CCC4(CC3)C(=O)Nc3ccccc34)ncnc21 [Compound 316, 1′-(9-ethyl-8-pyridazin-4-yl-9H-purin-6-yl)spiro[indole-3,4′-piperidin]-2(1H)-one] | < 50 |
| CN(C)C1CN(C(=O)c2nc3c(N4CCC5(CC4)C(=O)NCC5c4ccccc4)ncnc3n2C)C1 (centres unmarked) [Compound 10] | 500 to 1500 |
| Cn1c(-c2cnco2)nc2c(N3CCC(n4c(=O)[nH]c5ccccc54)CC3)ncnc21 [Compound 135, 1-{1-[9-methyl-8-(1,3-oxazol-5-yl)-9H-purin-6-yl]piperidin-4-yl}-1,3-dihydro-2H-benzimidazol-2-one] | 50 to 250 |
| Cn1c(C(=O)NCC2CC2)nc2c(N3CCC(C#N)(c4ccccc4)CC3)ncnc21 [Compound 275, 6-(4-cyano-4-phenylpiperidin-1-yl)-N-(cyclopropylmethyl)-9-methyl-9H-purine-8-carboxamide] | 50 to 250 |
| CCn1c(C(=O)NC2COC2)nc2c(N3CCC(n4c(=O)[nH]c5ccccc54)CC3)ncnc21 [Compound 208, 9-ethyl-N-oxetan-3-yl-6-[4-(2-oxo-2,3-dihydro-1H-benzimidazol-1-yl)piperidin-1-yl]-9H-purine-8-carboxamide] | < 50 |
| Cn1c(C(=O)NCC2CC2)nc2c(N3CCC4(CC3)OCc3ccccc34)ncnc21 [Compound 132, N-(cyclopropylmethyl)-9-methyl-6-(1′H,3H-spiro[2-benzofuran-1,4′-piperidin]-1′-yl)-9H-purine-8-carboxamide] | 500 to 1500 |
| Cn1c(C(=O)NCc2ccncc2)nc2c(N3CCC4(CC3)C(=O)Nc3ccccc34)ncnc21 [Compound 22, 9-methyl-6-(2-oxo-1,2-dihydro-1′H-spiro[indole-3,4′-piperidin]-1′-yl)-N-(pyridin-4-ylmethyl)-9H-purine-8-carboxamide] | 50 to 250 |
| CCn1c(-c2nnc(C(C)C)o2)nc2c(N3CCC(n4c(=O)[nH]c5ccccc54)CC3)ncnc21 [Compound 180, 1-(1-{9-ethyl-8-[5-(1-methylethyl)-1,3,4-oxadiazol-2-yl]-9H-purin-6-yl}piperidin-4-yl)-1,3-dihydro-2H-benzimidazol-2-one] | < 50 |
| Cn1c(C(=O)N2CCC(O)C2)nc2c(N3CCC(n4c(=O)[nH]c5ccccc54)CC3)ncnc21 (centres unmarked) [Compound 73, 1-(1-[8-[(3-hydroxypyrrolidin-1-yl)carbonyl]-9-methyl-9H-purin-6-yl]piperidin-4-yl)-1,3-dihydro-2H-benzimidazol-2-one] | 500 to 1500 |
| Cc1cncc(-c2nc3c(N4CCC(n5c(=O)[nH]c6ccccc65)CC4)ncnc3n2C)c1 [Compound 282, 1-{1-[9-methyl-8-(5-methylpyridin-3-yl)-9H-purin-6-yl]piperidin-4-yl}-1,3-dihydro-2H-benzimidazol-2-one] | < 50 |
| Cn1c(C(=O)NCC2CC2)nc2c(N3CCC(O)(c4ccccc4)CC3)ncnc21 [Compound 3, N-(cyclopropylmethyl)-6-(4-hydroxy-4-phenylpiperidin-1-yl)-9-methyl-9H-purine-8-carboxamide] | 50 to 250 |

| Compound | IC50 [nM] |
| --- | --- |
| CCn1c(C(=O)NCC2(O)CC2)nc2c(N3CCC4(CC3)C(=O)Nc3ccccc34)ncnc21 [Compound 215, 9-ethyl-N-[(1-hydroxycyclopropyl)methyl]-6-(2-oxo-1,2-dihydro-1′H-spiro[indole-3,4′-piperidin]-1′-yl)-9H-purine-8-carboxamide] | < 50 |
| Cc1ccoc1-c1nc2c(N3CCC(n4c(=O)[nH]c5ccccc54)CC3)ncnc2n1C [Compound 128, 1-{1-[9-methyl-8-(3-methylfuran-2-yl)-9H-purin-6-yl]piperidin-4-yl}-1,3-dihydro-2H-benzimidazol-2-one] | 250 to 500 |
| Cn1c(-c2ccncc2)nc2c(N3CCC(n4c(=O)[nH]c5ccccc54)CC3)ncnc21 [Compound 266, 1-[1-(9-methyl-8-pyridin-4-yl-9H-purin-6-yl)piperidin-4-yl]-1,3-dihydro-2H-benzimidazol-2-one] | 250 to 500 |
| CCn1c(C(=O)NCC2CCC2)nc2c(N3CCC4(CC3)C(=O)Nc3ccccc34)ncnc21 [Compound 212, N-(cyclobutylmethyl)-9-ethyl-6-(2-oxo-1,2-dihydro-1′H-spiro[indole-3,4′-piperidin]-1′-yl)-9H-purine-8-carboxamide] | < 50 |
| Cn1c(C(=O)NC2CC2)nc2c(N3CCC4(CC3)C(=O)Nc3ccccc34)ncnc21 [Compound 14, N-cyclopropyl-9-methyl-6-(2-oxo-1,2-dihydro-1′H-spiro[indole-3,4′-piperidin]-1′-yl)-9H-purine-8-carboxamide] | 50 to 250 |
| COc1ncc(-c2nc3c(N4CCC(n5c(=O)[nH]c6ccccc65)CC4)ncnc3n2C)c(OC)n1 [Compound 308, 1-(1-{8-[2,4-bis(methyloxy)pyrimidin-5-yl]-9-methyl-9H-purin-6-yl)piperidin-4-yl)-1,3-dihydro-2H-benzimidazol-2-one] | 50 to 250 |
| CCn1c(C(=O)N[C@H]2CC[C@H](O)CC2)nc2c(N3CCC(n4c(=O)[nH]c5ccccc54)CC3)ncnc21 [Compound 154, 9-ethyl-N-(trans-4-hydroxycyclohexyl)-6-[4-(2-oxo-2,3-dihydro-1H-benzimidazol-1-yl)piperidin-1-yl]-9H-purine-8-carboxamide] | < 50 |
| CCn1c(C(=O)N[C@H]2CC[C@H](O)CC2)nc2c(N3CCC(n4c(=O)[nH]c5ncccc54)CC3)ncnc21 [Compound 328, 9-ethyl-N-(trans-4-hydroxycyclohexyl)-6-[4-(2-oxo-2,3-dihydro-1H-imidazo[4,5-b]pyridin-1-yl)piperidin-1-yl]-9H-purine-8-carboxamide] | < 50 |
| CCn1cc(-c2nc3c(N4CCN(C5=NS(=O)(=O)c6ccccc65)CC4)ncnc3n2C)cn1 [Compound 349, 6-[4-(1,1-dioxido-1,2-benzisothiazol-3-yl)piperazin-1-yl]-8-(1-ethyl-1H-pyrazol-4-yl)-9-methyl-9H-purine] | 50 to 250 |
| Cn1cc(-c2nc3c(N4CCN(c5cccc(OCC(=O)NC6CCCC6)c5)CC4)ncnc3n2C)cn1 [Compound 356, N-cyclopentyl-2-[(3-{4-[9-methyl-8-(1-methyl-1H-pyrazol-4-yl)-9H-purin-6-yl]piperazin-1-yl}phenyl)oxy]acetamide] | 500 to 1500 |
| Cn1cc(-c2nc3c(N4CCN(S(=O)(=O)c5ccc(Cl)cc5)CC4)ncnc3n2C)cn1 [Compound 374, 6-{4-[(4-chlorophenyl)sulfonyl]piperazin-1-yl)-9-methyl-8-(1-methyl-1H-pyrazol-4-yl)-9H-purine] | 500 to 1500 |
| CN(C)C(=O)c1nc2c(N3CCC4(CC3)C(=O)NCN4c3ccccc3)ncnc2n1C [Compound 7, N,N,9-Trimethyl-6-(4-oxo-1-phenyl-1,3,8-triazaspiro[4.5]dec-8-yl)-9H-purine-8-carboxamide] | 500 to 1500 |
| Cn1cc(-c2nc3c(N4CCN(S(=O)(=O)c5ccc(F)cc5F)CC4)ncnc3n2C)cn1 [Compound 383, 6-{4-[(2,4-difluorophenyl)sulfonyl]piperazin-1-yl)-9-methyl-8-(1-methyl-1H-pyrazol-4-yl)-9H-purine] | 500 to 1500 |
| CCn1c(C(=O)NCCC(C)C)nc2c(N3CCC(n4c(=O)[nH]c5ccccc54)CC3)ncnc21 [Compound 198, 9-ethyl-N-(3-methylbutyl)-6-[4-(2-oxo-2,3-dihydro-1H-benzimidazol-1-yl)piperidin-1-yl]-9H-purine-8-carboxamide] | 50 to 250 |
| CC(C)CNC(=O)c1nc2c(N3CCC(n4c(=O)[nH]c5ccccc54)CC3)ncnc2n1C [Compound 67, 9-methyl-N-(2-methylpropyl)-6-[4-(2-oxo-2,3-dihydro-1H-benzimidazol-1-yl)piperidin-1-yl]-9H-purine-8-carboxamide] | < 50 |
| Cn1c(C(=O)NCc2ccncc2)nc2c(N3CCC(n4c(=O)[nH]c5ccccc54)CC3)ncnc21 [Compound 52, 9-methyl-6-[4-(2-oxo-2,3-dihydro-1H-benzimidazol-1-yl)piperidin-1-yl]-N-(pyridin-4-ylmethyl)-9H-purine-8-carboxamide] | 50 to 250 |
